Laboratory results from article PMC7473970, “Preformulation Studies of a Stable PTEN-PDZ Lipopeptide Able to Cross an In Vitro Blood-Brain-Barrier Model as a Potential Therapy for Alzheimer’s Disease” (Pharmaceutical Research, 2020).
Residues, ends and D or L forms follow the SMILES beside them.

Experiments:
[1] = In vitro stability in simulated intestinal fluid (mouse intestinal wash); format: in vitro ADME; conditions: 120 μL of 5 mM DMSO stock in 1080 μL, 37°C, 0-1440 min, HPLC-UV 220 nm, n = 3
Experimental: (§1) The samples were analyzed at 40°C on a Phenomenex Lichrosorb RP8 C8 column (4.0 mm × 250 mm, 5 μm), using the gradient elution method on an Agilent HPLC system (Agilent Technologies, Cheadle, UK) equipped with an 1100 series degasser, quaternary pump, autosampler, and column heater, and attached to an Agilent 1200 series PDA detector and a 1250 series fluorescent detector. The flow rate was set at 1.2 mL min^-1, and the injection volume was set at 40 μL, while detection was performed at 220 nm. The mobile phase was a mixture of mobile phase A (0.1% TFA in water) and phase B (0.08% TFA in acetonitrile), and in the first 5 min, the mobile phase was an 8:2 ratio of A:B (v/v) and from 5 to 15 min the percentage of B was raised from 8:2 to 1:9 (v/v). Linear calibration curves were constructed for both peptides between 0.1–100 μg.mL^−1. The retention time for the human Lau–PTEN-PDZ, mouse Lau–PTEN-PDZ, human Myr–PTEN-PDZ, and mouse Myr–PTEN-PDZ was 12.03, 11.60, 13.68, and 13.91, respectively.
The duodenum and ileum were excised from 10 non-fasted CD-1 male mice (7 weeks-old: Charles River Laboratories) that were sacrificed with CO2. Each duodenum and ileum were washed with 6 ml of phosphate buffer (50 mM, pH 6.63), and all the washes were pooled prior to centrifugation at 4000 rpm for 15 min at 4°C (Heraeus Multifuge 3sf) ([7],[15]). The intestinal wash was removed and frozen at −80°C prior to using it in stability studies without further dilution. Peptides stocks (5 mM in DMSO) were prepared and maintained at −20°C prior to performing stability studies. A stock peptide solution (120 μL) was added to the diluted pre-warmed (37°C) intestinal wash (1080 μL) with agitation at 100 rpm (Grant Aqua Waterbath), and samples (80 μL) were taken at 0, 15, 30, 45, 60, 90, 120, 180, 240, 360 and 1440 min, and diluted with ice-cold glacial acetic acid (17.5 M): acetonitrile (5:95 v/v, 80 μL) to quench the enzyme activity. Samples were vortexed and left in −80°C at least overnight to maximize protein precipitation, and after vortexing again for 15 min and centrifuging, the supernatant was analyzed by HPLC as described above.

hCMEC/D3 cells = assay: MTT metabolic activity assay in hCMEC/D3 cells; format: cell-based, human; conditions: 24 h versus 4 h exposure
Experimental: HCMEC/D3 (passage number 32–40) cultured in EBM-2 (Lonza) supplemented with the EGM-2 Bullet Kit™ (Lonza), and 2% v/v human serum (Sigma H3667, Batch: SLBW2276) were used to assess the cytotoxicity of lipidized peptides. The cells were subjected to routine mycoplasma testing and authenticated in house. The cells were seeded at 46,875 cells/cm^2 in complete medium, and allowed to attach overnight, refreshing the medium to treat the cells with peptide solutions. The peptide solutions were prepared from […] DMSO stocks at a final concentration between 1 and 400 μM in complete medium to ensure a final DMSO concentration of 0.5%, and 200 μL of the diluted stock was added to each well. The metabolic activity of the cells was measured after 4 and 24 h using the MTT (3-(4,5)-dimethylthiazol-2-yl)-2,5-diphenyltetrazolium bromide) assay. At the time points specified, the MTT solution was added to each well (20 μL at 5 mg.mL^−1 in PBS), and the cells were incubated for 4 h at 37°C. Subsequently, DMSO (100 μL) was added to dissolve the formazan crystals, and the absorbance was measured at 570 and 690 nm on a Multiskan Go microplate spectrophotometer, analyzing the data using the SkanIt software (Thermo Scientific, Paisley, UK). […]
IC50 values were calculated using Graphpad Prism 8.0 (San Diego, USA) and fitted using a non-linear regression model ([Inhibitor] vs. response (three parameters)).

[2] = In vitro stability in 50% v/v mouse plasma; format: in vitro ADME; conditions: 37°C, HPLC-UV 220 nm, one phase decay, least square fit, n = 3
Experimental: CD-1 male mice (7 weeks old: Charles River Laboratories) were sacrificed with CO2, and blood was collected in K3E EDTA spray-coated vacutainers and kept on ice prior to centrifugation at 3000 rpm for 15 min at 4°C (Heraeus Multifuge 3sf). Mouse plasma samples were stored at −80°C before use in stability studies. Study was approved by the University of Portsmouth Animal Welfare and Ethical Review Body (UoP AWERB body, 817).
For testing, the plasma was diluted (1:1) in PBS without phenol and pre-warmed to 37°C. Peptides stocks (5 mM in DMSO) were prepared and maintained at −20°C before performing the stability studies. Peptide stock solutions (120 μL) were added to pre-warmed diluted plasma (50% v/v, 1080 μL) and maintained at 37°C with agitation (100 rpm: Grant Aqua Waterbath, Royston, UK). Samples (80 μL) were taken at 0, 3, 6,9, 15, 30, 45, 60, 90, 120, 180, 240, 360 and 1440 min, diluted with ice-cold acetonitrile (80 μL), vortexed and left in −80°C at least overnight to favor maximal protein precipitation. The samples were then vortexed again for 15 min (SciQuip microplate shaker, Shropshire, UK), centrifuged in a Thermo Sci Jouan B4i Centrifuge (Hemel Hampstead, UK) and the supernatant was transferred to an HPLC vial (200 μL).
as §1

[3] = Simulated intestinal fluid = undiluted pooled CD-1 mouse duodenum/ileum wash, phosphate buffer pH 6.63, one phase decay fit

## CCCCCCCCCCCCCC(=O)N[C@@H](CCC(N)=O)C(=O)N[C@@H](Cc1c[nH]cn1)C(=O)N[C@@H](CO)C(=O)N[C@@H](CCC(N)=O)C(=O)N[C@H](C(=O)N[C@H](C(=O)N[C@@H](CCCCN)C(=O)N[C@H](C(=O)O)C(C)C)[C@@H](C)O)[C@@H](C)CC [Mouse Myr-PTEN-PDZ] (HELM PEPTIDE1{[CCCCCCCCCCCCCC(=O)[*:2]].Q.H.S.Q.I.T.K.V}$$$$V2.0)
[1]; Simulated intestinal fluid = undiluted pooled CD-1 mouse duodenum/ileum wash in 50 mM phosphate buffer pH 6.63, 100 rpm, one phase decay, least square fit
  k: 0.15 h⁻¹
[1]; [3]
  t1/2 (h): 4.52 h
  t1/2 (min): 271.02 min
hCMEC/D3 cells
  Recovery of cell metabolic activity after 24 h: did not allow the cells to recover after 24 h
[2]; 50% v/v CD-1 mouse plasma (K3 EDTA) in PBS, 120 μL of 5 mM DMSO stock in 1080 μL, 100 rpm, 0-1440 min
  k: 0.80 h⁻¹
[2]; 50% v/v mouse plasma in PBS
  t1/2 (h): 0.87 h
  t1/2 (min): 52.16 min
